Data taken from patent US12655116B2, “Substituted isophthalic acid diamides” (Bayer Aktiengesellschaft, priority 2020, dated 2026).

How the values were obtained:
ALOMY [1] = assay: Pre-emergence herbicidal action against ALOMY; assay type: in vivo, Alopecurus myosuroides; conditions: Alopecurus myosuroides, 504 h; 80 g/ha, pre-emergence, scored visually after 3 weeks vs untreated controls (100% = plants have died, 0% = like control plants)
How it was run: (§1)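 Seeds sown in sandy loam, soil-covered; compound sprayed on soil surface pre-emergence. Application: WP/EC, 600–800 l/ha, 0.2% wetting agent. Readout: visual % damage at 3 weeks.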

ECHCG [2] = assay: Post-emergence herbicidal action against ECHCG; assay type: in vivo, Echinochloa crus-galli; conditions: Echinochloa crus-galli, 504 h, dosage 20 g/ha
How it was run: (§2)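 Percent herbicidal action is rated by eye about 3 weeks after treatment against untreated controls, where 100% means dead plants and 0% means like controls. Plants in sandy loam are sprayed on green parts at the one-leaf stage with aqueous WP or EC preparations at 600 to 800 l/ha plus 0.2% wetting agent.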

ALOMY [3] = assay: Post-emergence herbicidal action against ALOMY; assay type: in vivo, Alopecurus myosuroides; conditions: Alopecurus myosuroides, 504 h, dosage 20 g/ha, visual assessment about 3 weeks after treatment vs untreated controls
How it was run: as §2

VIOTR [4] = assay: Pre-emergence herbicidal action against VIOTR; assay type: in vivo, Viola tricolor; conditions: Viola tricolor, 504 h
How it was run: as §1

PHBPU [5] = assay: Pre-emergence herbicidal action against PHBPU; assay type: in vivo, Pharbitis purpurea; conditions: Ipomoea purpurea, 504 h, dosage 80 g/ha
How it was run: as §1

MATIN [6] = assay: Pre-emergence herbicidal action against MATIN; assay type: in vivo, Matricaria inodora; conditions: Tripleurospermum inodorum, 504 h
How it was run: as §1

VERPE [7] = assay: Pre-emergence herbicidal action against VERPE; assay type: in vivo, Veronica persica; conditions: Veronica persica, 504 h, dosage 80 g/ha
How it was run: as §1

AMARE [8] = assay: Post-emergence herbicidal action against AMARE; assay type: in vivo, Amaranthus retroflexus; conditions: Amaranthus retroflexus, 504 h, 20 g/ha, visual assessment about 3 weeks after treatment, 100% = plants have died, 0% = like control plants
How it was run: as §2

POLCO [9] = assay: Pre-emergence herbicidal action against POLCO; assay type: in vivo, Polygonum convolvulus; conditions: Fallopia convolvulus, 504 h, dosage 80 g/ha
How it was run: as §1

ECHCG [10] = assay: Pre-emergence herbicidal action against ECHCG; assay type: in vivo, Echinochloa crus-galli; conditions: Echinochloa crus-galli, 504 h, 80 g/ha
How it was run: as §1

VIOTR [11] = assay: Post-emergence herbicidal action against VIOTR; assay type: in vivo, Viola tricolor; conditions: Viola tricolor, 504 h
How it was run: as §2

POLCO [12] = assay: Post-emergence herbicidal action against POLCO; assay type: in vivo, Polygonum convolvulus; conditions: Fallopia convolvulus, 504 h, dosage 20 g/ha
How it was run: as §2

MATIN [13] = assay: Post-emergence herbicidal action against MATIN; assay type: in vivo, Matricaria inodora; conditions: Tripleurospermum inodorum, 504 h, dosage 20 g/ha
How it was run: as §2

VERPE [14] = assay: Post-emergence herbicidal action against VERPE; assay type: in vivo, Veronica persica; conditions: Veronica persica, 504 h, 20 g/ha
How it was run: as §2

ABUTH [15] = assay: Post-emergence herbicidal action against ABUTH; assay type: in vivo, Abutilon theophrasti; conditions: Abutilon theophrasti, 504 h, visual assessment about 3 weeks after treatment vs untreated controls
How it was run: as §2

ABUTH [16] = assay: Pre-emergence herbicidal action against ABUTH; assay type: in vivo, Abutilon theophrasti; conditions: Abutilon theophrasti, 504 h
How it was run: as §1

SETVI [17] = assay: Post-emergence herbicidal action against SETVI; assay type: in vivo, Setaria viridis; conditions: Setaria viridis, 504 h
How it was run: as §2

AVEFA = assay: Pre-emergence herbicidal action against AVEFA; assay type: in vivo, Avena fatua; conditions: Avena fatua, 504 h, pre-emergence
How it was run: as §1

SETVI [18] = assay: Pre-emergence herbicidal action against SETVI; assay type: in vivo, Setaria viridis; conditions: Setaria viridis, 504 h
How it was run: as §1

DIGSA [19] = assay: Post-emergence herbicidal action against DIGSA; assay type: in vivo, Digitaria sanguinalis; conditions: Digitaria sanguinalis, 504 h
How it was run: as §2

AMARE [20] = assay: Pre-emergence herbicidal action against AMARE; assay type: in vivo, Amaranthus retroflexus; conditions: Amaranthus retroflexus, 504 h, scored visually after 3 weeks vs untreated controls, 100% = plants have died, 0% = like control plants
How it was run: as §1

PHBPU [21] = assay: Post-emergence herbicidal action against PHBPU; assay type: in vivo, Pharbitis purpurea; conditions: Ipomoea purpurea, 504 h, dosage 20 g/ha
How it was run: as §2

DIGSA [22] = assay: Pre-emergence herbicidal action against DIGSA; assay type: in vivo, Digitaria sanguinalis; conditions: Digitaria sanguinalis, 504 h
How it was run: as §1

For CNC(=O)c1c(C(F)(F)F)ccc(C(=O)Nc2nnnn2C)c1Br [Example 1-207], which pest or weed control at 80 g/ha (ALOMY [1]) is on record?
Its pest or weed control at 80 g/ha is 100%.

And the pest or weed control at 20 g/ha (ECHCG [2])?
Its pest or weed control at 20 g/ha is 80%.

What about the pest or weed control at 20 g/ha (ALOMY [3]) of the same compound?
The pest or weed control at 20 g/ha was 90%.

And the pest or weed control at 20 g/ha (VIOTR [4]; dosage 20 g/ha)?
The pest or weed control at 20 g/ha was 100%.

What about the pest or weed control at 80 g/ha (VIOTR [4]; dosage 80 g/ha) of the same compound?
Its pest or weed control at 80 g/ha is 100%.

What about the pest or weed control at 80 g/ha (PHBPU [5]) of the same compound?
The pest or weed control at 80 g/ha was 80%.

What about the pest or weed control at 20 g/ha (MATIN [6]; dosage 20 g/ha) of the same compound?
Its pest or weed control at 20 g/ha is 90%.

And the pest or weed control at 80 g/ha (MATIN [6]; dosage 80 g/ha)?
The pest or weed control at 80 g/ha was 100%.

And the pest or weed control at 80 g/ha (VERPE [7])?
Its pest or weed control at 80 g/ha is 100%.

And the pest or weed control at 20 g/ha (AMARE [8])?
Its pest or weed control at 20 g/ha is 100%.

What about the pest or weed control at 80 g/ha (POLCO [9]) of the same compound?
Its pest or weed control at 80 g/ha is 90%.

What about the pest or weed control at 80 g/ha (ECHCG [10]) of the same compound?
The pest or weed control at 80 g/ha was 90%.

And the pest or weed control at 5 g/ha (VIOTR [11]; 5 g/ha)?
The pest or weed control at 5 g/ha was 100%.

And the pest or weed control at 20 g/ha (VIOTR [11]; 20 g/ha)?
The pest or weed control at 20 g/ha was 100%.

And the pest or weed control at 20 g/ha (POLCO [12])?
The pest or weed control at 20 g/ha was 100%.

What about the pest or weed control at 20 g/ha (MATIN [13]) of the same compound?
The pest or weed control at 20 g/ha was 90%.

And the pest or weed control at 20 g/ha (VERPE [14])?
Its pest or weed control at 20 g/ha is 90%.

What about the pest or weed control at 5 g/ha (ABUTH [15]; dosage 5 g/ha) of the same compound?
Its pest or weed control at 5 g/ha is 80%.

What about the pest or weed control at 20 g/ha (ABUTH [15]; dosage 20 g/ha) of the same compound?
The pest or weed control at 20 g/ha was 90%.

And the pest or weed control at 80 g/ha (ABUTH [16]; 80 g/ha, scored visually after 3 weeks vs untreated controls (100% = plants have died, 0% = like control plants))?
The pest or weed control at 80 g/ha was 100%.

And the pest or weed control at 20 g/ha (ABUTH [16]; dosage 20 g/ha, scored visually after 3 weeks vs untreated controls, 100% = plants have died, 0% = like control plants, read-out: Pre-emergence action against ABUTH (herbicidal activity in percent))?
The pest or weed control at 20 g/ha was 100%.

And the pest or weed control at 5 g/ha (SETVI [17]; dosage 5 g/ha)?
Its pest or weed control at 5 g/ha is 100%.

What about the pest or weed control at 20 g/ha (SETVI [17]; dosage 20 g/ha) of the same compound?
Its pest or weed control at 20 g/ha is 100%.

And the pest or weed control at 80 g/ha (AVEFA; 80 g/ha)?
The pest or weed control at 80 g/ha was 90%.

What about the pest or weed control at 20 g/ha (AVEFA; 20 g/ha, scored visually after 3 weeks, 100% = plants have died, 0% = like control plants) of the same compound?
Its pest or weed control at 20 g/ha is 80%.

And the pest or weed control at 20 g/ha (SETVI [18]; dosage 20 g/ha)?
Its pest or weed control at 20 g/ha is 100%.

And the pest or weed control at 80 g/ha (SETVI [18]; dosage 80 g/ha)?
Its pest or weed control at 80 g/ha is 100%.

And the pest or weed control at 5 g/ha (DIGSA [19]; 5 g/ha)?
The pest or weed control at 5 g/ha was 90%.

What about the pest or weed control at 20 g/ha (DIGSA [19]; 20 g/ha) of the same compound?
The pest or weed control at 20 g/ha was 100%.

And the pest or weed control at 20 g/ha (AMARE [20]; 20 g/ha)?
The pest or weed control at 20 g/ha was 100%.

And the pest or weed control at 80 g/ha (AMARE [20]; 80 g/ha)?
Its pest or weed control at 80 g/ha is 100%.

What about the pest or weed control at 20 g/ha (PHBPU [21]) of the same compound?
The pest or weed control at 20 g/ha was 80%.

And the pest or weed control at 20 g/ha (DIGSA [22]; dosage 20 g/ha)?
Its pest or weed control at 20 g/ha is 100%.

What about the pest or weed control at 80 g/ha (DIGSA [22]; dosage 80 g/ha) of the same compound?
The pest or weed control at 80 g/ha was 100%.
